Where a name gives a salt, the structure may show the parent alone.
Test system: SKH-1 hairless mice
Assay: UVB induced skin edema in SKH-1 hairless mice
Format: in vivo, mouse
Method: To evaluate the effects of systemic administration of Ex. 23 on UVB induced edema 16 SKH-1 hairless mice were divided into two groups of 8 animals each. Group 1 mice (Control) were exposed to 230 mJ/cm^2 UVB consecutively for 2 days (a total cumulative UVB dose of 460 mJ/cm^2), which evoked edema as described by Athar et al. (Tox. Appl. Pharmacol. 195: 370-378, 2004). Group 2 mice received Ex 23. (10 mg/kg) intraperitoneally 30 min before the first UV treatment. The administration of the compound Ex. 23 was repeated 24 and 48 hours later. UVB-induced skin edema was monitored by measuring the increase in dorsal skin thickness using an ultrasound skin scanner (22 MHz).

In the case of `COC(=O)C1=C(CCN(C)C)N(C)C(CCN(C)C)=C(C(=O)OC)C1c1ccc(C(F)(F)F)cc1` [Example 23, Dimethyl 4-(4-trifuoromethylphenyl)-2,6-bis-(2-dimethylaminoethyl)-1-methyl-1,4-dihydropyridine-3,5-dicarboxylate dihydrochloride], the “UVB induced skin edema (increase in skin thickness)” value (10 mg/kg i.p. 30 min before first UV, repeated 24 and 48 hours later, FIG. 7) is reported as “substantially protected against edema formation” and the In vivo efficacy (model in which efficacy was shown) is reported as “UVB protection”.
